{"source": "patent EP3355943B1", "about": "“METHODS AND SYSTEMS FOR TREATING MEDICAL DEVICES AND FLUIDS” (Ethicon, Inc., priority 2015, dated 2017)", "key": {"[1]": {"assay": "Suture testing in aqueous suspension of CaSt: endotoxin detected on LPS-contaminated suture", "type": "biochemical", "experimental": "Treatment of sutures in aqueous suspensions of CaSt was performed as follows: Suture used was VICRYL® (Polyglactin 910) suture made of a copolymer made from 90% glycolide and 10% L-lactide, Size 1, 27 inch pieces. […] Endosafe LAL Reagent Water (LRW) was used, manufactured by Charles River Laboratories, Charleston S.C..\nEight strands of suture were placed in tubing with LPS (endotoxin) solution for 10 minutes at a time. The sutures were dried for 20 minutes and then placed in round bottom tubes. Suspensions of 5% by weight CaSt in LAL Reagent Water were prepared. (0.5 g CaSt in 10 mL LRW). One suture was placed in each tube and vortexed in this solution for approximately 10 seconds. The sutures were removed and allowed to dry for 20 minutes and then placed in round bottom tubes. This was done for 3 sutures. Three pieces of suture, serving as the control, were not submerged in any solutions and placed in test tubes. 3 mL of LAL reagent water was added to each test tube, vortexed vigorously for 1 minute, and then placed in a hot water bath at 37°C for 1 hour. They were then removed, vortexed vigorously for 1 minute, diluted, and tested on the MCS system. […] These were also tested for endotoxin on the MCS. Table 4. Detection of LPS after adding CaSt to test tubes containing water spiked with LPS"}, "[2]": {"assay": "Suture testing in ethanol, cyclohexane, isopropanol with 1% calcium stearate", "type": "biochemical", "details": "for Change in Endotoxin Level (%): vs. Suture-1 not submerged (68.1 EU)", "experimental": "Similarly to the testing above, an absorbable suture of the same type, similarly contaminated, was exposed to CaSt in three solvents (ethanol, cyclohexane, isopropanol). The suture was then tested for LPS.\nSutures used were 27 inch long pieces of absorbable lactide-glycolide sutures. […] 7 strands of suture were placed in tubing with endotoxin solution for 10 minutes at a time. The sutures were dried for 20 minutes and then placed in round bottom tubes. […] 1 suture was placed in each tube and vortexed in this solution for approximately 10 seconds. The sutures were removed and allowed to dry for 20 minutes and then placed in round bottom tubes. This was done for 6 sutures. 1 piece of suture, serving as the control, was not submerged in any solutions and placed in test tubes. 3 mL of LAL reagent water was added to each test tube, vortexed vigorously, and then placed in a hot water bath at 37°C for 1 hour. They were then removed, vortexed vigorously, diluted, and tested on the MCS system. […] Results of testing in ethanol, cyclohexane, isopropanol"}, "[3]": {"assay": "Endotoxin removal by sonicated CaSt suspension stored 1 month", "type": "biochemical", "details": "listed as CaSt suspension; for Percent Endotoxin Removal(15 min/30 min): sonicated suspension stored 1 month", "experimental": "10 ml of LRW water (LAL reagent water, contains no endotoxin) containing 0.04 g of CaSt suspension was sonicated using Misonix Probe Sonicator, Model: S-4000, Amplitude: 30, Time: 30 seconds and then the suspension was stored for 1 month at ambient temperature. Then 1 ml of the above suspension was added to 10 ml endotoxin containing water SRW and the resulting endotoxin concentrations in the combined solution measured after 15 min and 30 min, with the results presented in Table 14."}, "[4]": {"assay": "Testing of various sources of LPS: detection of LPS after adding CaSt to spiked water", "type": "biochemical", "experimental": "Therefore, for the methods described above, the activity of endotoxin was tested with various sources of endotoxin. Laboratory grown endotoxin is purified while natural endotoxin will be present with other substances such as proteins and phospholipids.\nThe laboratory grown endotoxin used in this experiment was supplied by Charles River Laboratories.\nNatural airborne endotoxin was captured using an electret filter. Electret filters are produced from dielectric polymer fibers that develop an electrical charge when air flows past them, capturing the endotoxin along with other particles. The endotoxin was extracted from the filter by placing the filter in endotoxin free water for an extended period of time.\nTwo other natural sources of endotoxin were obtained from water samples in the surrounding environment. One source was a pool of sitting rain water and other being a small puddle on the side of the Raritan River. The sitting rain water (SRW) was purified via chlorination and 0.2 µm filter. The Raritan River Water (RRW) was not altered in anyway. The same testing procedure was conducted for all sources of endotoxin.\nTable 11. Detection of LPS after adding CaSt to test tubes containing water spiked with LPS"}, "[5]": {"type": "in vivo", "details": "female rats, observed 4 days", "experimental": "An animal study was conducted with 30 female rats with weights ranging from 250-300g and acclimated for 5 days. All rats were dosed with intraperitoneal injections using 18 gauge needles. The rats were broken into 6 groups. A negative control (NC-1) dosed 5 rats with 5mL of normal saline solution. […] A positive control (PC-1) dosed 5 rats with 2.5 million EU in a 5mL saline solution. A second positive control (PC-2) was conducted dosing 5 rats with 5 million endotoxin units in a 5mL normal saline solution. Two experimental test groups were conducted.\nThe negative control samples also had no toxicity. Table 21. Results of animal study with CaSt dosing"}, "[6]": {"details": "suture submerged in Cyclohexane w/1% Calcium Stearate (0.0858 g)"}, "[7]": {"details": "suture submerged in Ethanol w/1% Calcium Stearate (0.0827 g)"}, "[8]": {"details": "suture submerged in Isopropanol w/1% Calcium Stearate (0.0841 g)"}, "[9]": {"details": "Charles River Standard, 0.018 g Calcium Stearate, 8330 EU spiked"}, "[10]": {"details": "Charles River Standard, 0.05 g Calcium Stearate, 8330 EU spiked"}, "[11]": {"details": "Charles River Standard, 0.15 g Calcium Stearate, 8330 EU spiked"}, "[12]": {"details": "Charles River Standard, 0.25 g Calcium Stearate, 8330 EU spiked"}, "[13]": {"details": "Dust Filter Extraction Water, 0.01 g Calcium Stearate, 9280 EU spiked"}, "[14]": {"details": "Dust Filter Extraction Water, 0.25 g Calcium Stearate, 9280 EU spiked"}, "[15]": {"details": "RRW, 0.01 g Calcium Stearate, 4340 EU spiked"}, "[16]": {"details": "RRW, 0.1 g Calcium Stearate, 4340 EU spiked"}, "[17]": {"details": "RRW, 0.25 g Calcium Stearate, 4340 EU spiked"}, "[18]": {"details": "SRW, 0.01 g Calcium Stearate, 11100 EU spiked"}}, "note": "Several values for one entry are separate records, joined by “and”; a condition that tells them apart may be missing. Equal entries are not always repeated. Where two headings read alike, the source gives them in different places.", "data": [{"compound": "CCCCCCCCCCCCCCCCCC(=O)O", "note": "[Calcium Stearate]", "values": [{"measurement": "Endotoxin Detected (EU)", "setting": "[1]; Water with 5% Calcium Stearate solution tested after suture removal (samples 4-6)", "value": "<1.0", "unit": "EU"}, {"measurement": "Average Endotoxin Detected (EU)", "setting": "[1]; suture submerged in LAL Water w/ 5% Calcium Stearate, samples 4-6", "value": 3.27, "unit": "EU"}, {"measurement": "Average Change in Endotoxin Level (%)", "setting": "[1]; suture submerged in LAL Water w/ 5% Calcium Stearate, vs. sutures not submerged (84 EU)", "value": -96.1, "unit": "%"}, {"measurement": "LPS activity decreased by", "setting": "[2]; CaSt 1% suspension in ethanol, cyclohexane, isopropanol", "value": "75-95%"}, {"measurement": "Endotoxin Detected (EU)", "setting": "[2]; [6]", "value": 4.02, "unit": "EU"}, {"measurement": "Change in Endotoxin Level (%)", "setting": "[2]; [6]", "value": -94.1, "unit": "%"}, {"measurement": "Endotoxin Detected (EU)", "setting": "[2]; [7]", "value": 15.06, "unit": "EU"}, {"measurement": "Change in Endotoxin Level (%)", "setting": "[2]; [7]", "value": -77.9, "unit": "%"}, {"measurement": "Endotoxin Detected (EU)", "setting": "[2]; [8]", "value": 16.59, "unit": "EU"}, {"measurement": "Change in Endotoxin Level (%)", "setting": "[2]; [8]", "value": -75.6, "unit": "%"}, {"measurement": "Endotoxin EU/mL (15 min after addition of CaSt suspension)", "setting": "[3]; 0.04 g CaSt in 10 ml LRW sonicated, stored 1 month, added to SRW, initial 732.5 EU/mL, 15 min", "value": "372 EU/mL and 362 EU/mL"}, {"measurement": "Endotoxin EU/mL (30 min after addition of CaSt suspension)", "setting": "[3]; 0.04 g CaSt in 10 ml LRW sonicated, stored 1 month, added to SRW, initial 732.5 EU/mL, 30 min", "value": "384 EU/mL and 278 EU/mL"}, {"measurement": "Percent Endotoxin Removal(15 min/30 min)", "setting": "[3]; 15 min", "value": "49.2% and 50.6%"}, {"measurement": "Percent Endotoxin Removal(15 min/30 min)", "setting": "[3]; 30 min", "value": "47.6% and 62.0%"}, {"measurement": "percent of endotoxin recovered", "setting": "[4]; 0.1 grams of calcium stearate and higher, all sources of endotoxin", "value": "under 5%"}, {"measurement": "Endotoxin Detected (EU)", "setting": "[4]; Charles River Standard, 0.007 g Calcium Stearate, 8330 EU spiked", "value": 3995, "unit": "EU"}, {"measurement": "Endotoxin Detected (EU)", "setting": "[4]; [9]", "value": 1487.5, "unit": "EU"}, {"measurement": "Percent of Endotoxin Detected", "setting": "[4]; [9]", "value": 17.9, "unit": "%"}, {"measurement": "Endotoxin Detected (EU)", "setting": "[4]; Charles River Standard, 0.028 g Calcium Stearate, 8330 EU spiked", "value": 235, "unit": "EU"}, {"measurement": "Endotoxin Detected (EU)", "setting": "[4]; [10]", "value": 190.5, "unit": "EU"}, {"measurement": "Percent of Endotoxin Detected", "setting": "[4]; [10]", "value": 2.3, "unit": "%"}, {"measurement": "Endotoxin Detected (EU)", "setting": "[4]; [11]", "value": 86.5, "unit": "EU"}, {"measurement": "Percent of Endotoxin Detected", "setting": "[4]; [11]", "value": 1.0, "unit": "%"}, {"measurement": "Endotoxin Detected (EU)", "setting": "[4]; [12]", "value": 38.5, "unit": "EU"}, {"measurement": "Percent of Endotoxin Detected", "setting": "[4]; [12]", "value": 0.5, "unit": "%"}, {"measurement": "Endotoxin Detected (EU)", "setting": "[4]; [13]", "value": 3440, "unit": "EU"}, {"measurement": "Percent of Endotoxin Detected", "setting": "[4]; [13]", "value": 37.1, "unit": "%"}, {"measurement": "Endotoxin Detected (EU)", "setting": "[4]; [14]", "value": 28.5, "unit": "EU"}, {"measurement": "Percent of Endotoxin Detected", "setting": "[4]; [14]", "value": 0.3, "unit": "%"}, {"measurement": "Endotoxin Detected (EU)", "setting": "[4]; [15]", "value": 960, "unit": "EU"}, {"measurement": "Percent of Endotoxin Detected", "setting": "[4]; [15]", "value": 22.1, "unit": "%"}, {"measurement": "Endotoxin Detected (EU)", "setting": "[4]; [16]", "value": 165, "unit": "EU"}, {"measurement": "Percent of Endotoxin Detected", "setting": "[4]; [16]", "value": 3.8, "unit": "%"}, {"measurement": "Endotoxin Detected (EU)", "setting": "[4]; [17]", "value": 70, "unit": "EU"}, {"measurement": "Percent of Endotoxin Detected", "setting": "[4]; [17]", "value": 1.6, "unit": "%"}, {"measurement": "Percent of Endotoxin Detected", "setting": "[4]; RRW, 0.35 g Calcium Stearate, 4340 EU spiked", "value": 2.6, "unit": "%"}, {"measurement": "Endotoxin Detected (EU)", "setting": "[4]; [18]", "value": 2780, "unit": "EU"}, {"measurement": "Percent of Endotoxin Detected", "setting": "[4]; [18]", "value": 25.0, "unit": "%"}, {"measurement": "Percent of Endotoxin Detected", "setting": "[4]; SRW, 0.25 g Calcium Stearate, 11100 EU spiked", "value": 1.0, "unit": "%"}, {"measurement": "Results (toxicity)", "setting": "[5]; NC-2: 0.2 g Calcium Stearate in 5.0 mL normal saline, intraperitoneal, no endotoxin", "value": "No Toxicity Observed"}, {"measurement": "Results (toxicity)", "setting": "[5]; T-1: 2,500,000 EU + 0.2g Calcium Stearate + normal saline (5.0 mL) dosed IP", "value": "No Toxicity Observed"}, {"measurement": "Results (toxicity)", "setting": "[5]; T-1: 2,500,000 EU + 0.2g Calcium Stearate + normal saline (5.0 mL) dosed IP, listed as calcium stearate", "value": "no toxicity or adverse effects"}, {"measurement": "Results (toxicity)", "setting": "[5]; T-2: 5,000,000 EU + 0.2g Calcium Stearate + normal saline (5.0 mL) dosed IP", "value": "No Toxicity Observed"}, {"measurement": "Results (toxicity)", "setting": "[5]; T-2: 5,000,000 EU + 0.2g Calcium Stearate + normal saline (5.0 mL) dosed IP, listed as calcium stearate", "value": "no toxicity or adverse effects"}]}]}
